We go through one compound from paper PMC5581131, “The novel sphingosine-1-phosphate receptors antagonist AD2900 affects lymphocyte activation and inhibits T-cell entry into the lymph nodes” (Oncotarget, 2017).

One test concerns Jurkat cell line. Kind of test: XTT viability assay, Jurkat. It counts as cell-based, human. Conditions: 1-day treatment. The procedure:
(§1) Figure 1 AD2900 inhibits human lymphocyte proliferation in allogeneic activation (A, B) The levels of proliferative response of human peripheral blood lymphocytes (PBMCs) after 1-day pretreatment with different concentrations of AD2900, AD2750, YZ138, YZ158, and YZ297 (A) or AD2900, FTY720, and SEW2871 (B) were tested by human allogeneic mixed lymphocyte reaction (MLR) assay, followed by a [3H] thymidine incorporation analysis. (C) Apoptosis of AD2900-treated activated PBMCs was tested by AnnexinV-propidium iodide (PI) FACS analysis following 1-day AD2900 pretreatment and MLR. All the samples were compared to the untreated PBMC control. (D) IFN-γ secretion from activated PBMCs was tested by ELISA following a 1-day AD2900 pretreatment in MLR. On the 5th day of hMLR, supernatants were collected and assayed for the level of IFN-γ. (E) Jurkat cell viability after a 1-day treatment with different concentrations of AD2900, FTY720, and SEW2871 was tested by XTT viability assay. (F) H9, CEM/C1, and Molt4 cell viability after a 1-day treatment with different concentrations of AD2900 was tested by XTT viability assay. Graphs summarize the results of at least three independent experiments. Results of Student’s t-test: *(P < 0.05, two-tailed test), ** (P < 0.01, two-tailed test), *** (P < 0.001, two-tailed test), **** (P < 0.0001, two-tailed test). […]
Background: Formazan colour is commonly taken as a measure of viable cells.

In a further test the test system is H9. Kind of test: XTT viability assay, H9. The format is cell-based, human. As to conditions: 1-day treatment, compared with Jurkat (>10 μM). The procedure: as §1
A further test concerns murine splenocytes. Put plainly: Mouse allogeneic MLR with murine splenocytes. The format is cell-based. As to conditions: 1-day pretreatment, 3-day mice MLR; mean of up to, highest concentration. The procedure:
Supplementary Figure 4: AD2900 inhibits mice splenocytes proliferation in allogeneic activation in vitro. In vivo- the […]
(A) The levels of proliferative response of mouse splenocytes after one day pretreatment with different concentrations of AD2900 were tested by mouse allogeneic mixed lymphocyte reaction (MLR) assay followed by a [3H] thymidine incorporation analysis. [3H] thymidine was incorporated for at least 16 hours at the 3rd day of the experiment. Significance is compared to untreated mice splenocytes. (B) C57BL/6 mice were orally administered AD2900 or FTY720. Leucocytes from blood, spleen and pLNs were collected and stained with TCR-β, CD62L and CD44 florescent antibodies and then analyzed by FACS analysis. The percent of CD62L+CD44+ (Tcm) like cells out of the total T cell population (TCR-β+) in blood, spleen and pLNs are shown. All the significances are compared to untreated healthy mice. Graphs summarize results of at least three independent experiments. Results of Student’s t test :*( P < 0.05, two-tailed test), ** (P < 0.01, two-tailed test), *** (P < 0.001, two-tailed test), **** (P < 0.0001, two-tailed test).
(also on this page, place not known: www.impactjournals.com/oncotarget/ Oncotarget, Materials 2017 Supplementary) […]

Another test relates to human PBMCs. Kind of test: Human allogeneic mixed lymphocyte reaction (MLR), [3H] thymidine incorporation, 1-day pretreatment. It counts as cell-based. The procedure: To select an analogue with potential anti-inflammatory activity, the effects of six of our unique synthetic sphingolipid analogues (all chemical structures can be found in Supplementary Figure 1A) on human immune cell activation were examined. Human PBMCs were cultured with the compounds for 1 day at different concentrations. The cells were then activated by PBMCs from a different donor in a mixed lymphocyte reaction (MLR) experiment. […] The amine derivative, AD2900, is substituted with amino diols. Structurally, AD2900 has a hydroxymethyl group on carbon 2 and no phenyl substitution. These characteristics cause AD2900 to be more hydrophilic than other analogues. In addition, previous studies have shown that AD2900 has a higher lethal dose 50% (LD50), which is above 100 mg/kg, and it is stable at room temperature for at least 2 years (unpublished data). Based on these characteristics, AD2900 was selected for further investigation. […]
Human PBLs were collected from human whole blood collected from healthy donors. […] For the thymidine incorporation assay, after 4 days of co-culture, cells were pulsed with ^3H-thymidine at 1 μCi (0.037MBq) per well (PerkinElmer, MA, USA) for 16 additional hours and then harvested onto glass-fiber filters. ^3H-thymidine incorporation was measured using Top Count. […]

A further test relates to Molt4. Put plainly: XTT viability assay, Molt4. It counts as cell-based, human. As to conditions: 1-day treatment, compared with Jurkat (>10 μM). The procedure: as §1

As for `CCCCCCCCCCCCCCCCNC(CO)(CO)CO` [AD2900], in the test on Jurkat cell line, the “concentrations leading to reduced viability of Jurkat cells” value is on record as “higher than 10 μM”; the “effect on Jurkat viability compared to FTY720 and SEW2817” value was “lower than that with FTY720 treatment and higher than that with SEW2817”. In addition, the “cell viability, H9” value in the test with H9 is “reduced cell viability could be detected even at lower concentrations”. For the same compound, the “inhibition of mice T-cell proliferation” value in the test on murine splenocytes is 73% ± 3%. For the same compound, in the test on human PBMCs (1-day pretreatment prior to MLR, concentrations of 6–20 μM), the “inhibitory effect on lymphocyte activation compared to FTY720 and SEW2817” value was “compromised effect in comparison to FTY720 but a higher inhibitory effect than that with SEW2817”. The “inhibition of PBMC proliferation” value in the test with human PBMCs (1-day pretreatment, MLR, mean of up to, at the highest concentration) is given as 76% ± 4%. Moreover, the “cell viability, Molt4” value in the test on Molt4 is “reduced cell viability could be detected even at lower concentrations”.
